Structures can show the parent of a compound that is named as a salt.
Molecular target: T1, AR (Homo sapiens, UniProt P10275)
T1 construct: endogenous in cells; host or cells: VCaP cells
T1 sequence (P10275 1-920): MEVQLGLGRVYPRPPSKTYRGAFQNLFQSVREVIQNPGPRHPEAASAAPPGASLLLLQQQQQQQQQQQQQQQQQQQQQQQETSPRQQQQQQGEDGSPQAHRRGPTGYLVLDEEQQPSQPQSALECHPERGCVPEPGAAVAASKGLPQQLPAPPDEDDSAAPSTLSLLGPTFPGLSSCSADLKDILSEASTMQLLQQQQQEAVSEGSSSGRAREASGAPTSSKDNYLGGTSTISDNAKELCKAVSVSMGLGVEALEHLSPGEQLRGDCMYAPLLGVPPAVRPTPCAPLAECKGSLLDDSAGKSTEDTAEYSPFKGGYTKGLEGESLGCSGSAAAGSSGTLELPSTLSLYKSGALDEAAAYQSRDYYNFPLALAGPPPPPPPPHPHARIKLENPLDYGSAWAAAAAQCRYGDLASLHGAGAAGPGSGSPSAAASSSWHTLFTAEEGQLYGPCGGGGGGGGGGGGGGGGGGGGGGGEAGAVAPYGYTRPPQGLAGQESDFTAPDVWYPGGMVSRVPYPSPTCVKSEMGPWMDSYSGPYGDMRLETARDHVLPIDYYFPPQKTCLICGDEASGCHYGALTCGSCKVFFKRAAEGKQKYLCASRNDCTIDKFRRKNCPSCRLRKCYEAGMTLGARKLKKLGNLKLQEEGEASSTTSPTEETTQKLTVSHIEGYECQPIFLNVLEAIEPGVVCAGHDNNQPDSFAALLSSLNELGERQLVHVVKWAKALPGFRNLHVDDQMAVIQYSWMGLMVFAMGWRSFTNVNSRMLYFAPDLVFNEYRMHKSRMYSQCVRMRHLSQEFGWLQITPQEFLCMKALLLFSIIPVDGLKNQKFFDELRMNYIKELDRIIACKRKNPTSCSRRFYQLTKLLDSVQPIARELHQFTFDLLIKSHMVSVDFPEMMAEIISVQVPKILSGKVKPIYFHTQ
Experiment: VCAP AR Degradation Assay
Type: cell-based
Settings: for Y (AR degradation efficiency, % of DMSO control): class symbols *; for DC50: class symbols A-C, read-out: DC50
Procedure: VCAP AR Degradation Assay. Test compounds were pre-dispensed into a Corning CellBind 96-well clear bottom plate (Cat #3300) using an acoustic dispenser to make a 10-point concentration series at 1:3 dilution for each compound. The final top concentration of each compound was 5 μM. DMSO at a final concentration of 0.1% was used as a control. VCaP cells cultured in DMEM with 8% fetal bovine serum (FBS) were seeded at 50K cells per well in a 200 μL volume into the compound plate and incubated at 37° C. in a CO2 incubator for 24 h. The medium was carefully removed from the cells and the plate was placed on ice. One hundred μL of ice-cold 1x cell lysis buffer from Cell Signaling Technologies (Cat #9803) was added to each well of the cells and the plate was incubated at 4° C. on a shaker for 1 h. Fifteen μL of cell lysate was used for AR ELISA detection using a PathScan Total Sandwich AR ELISA kit (Cell Signaling Technology, Cat #12580). AR levels in compound-treated wells were normalized to that of DMSO control and expressed as percent of control (PoC) (y). A Four Parameter Logistic Model (Sigmoidal Dose-Response Model) was used to determine the compound's DC50, and EC50, using the following equation:
[formula] • A=YMin (lowest AR level normalized to DMSO control in response to compound treatment, as determined by curve fit) • B=YMax (maximum AR level as determined by curve fit) • C=EC50 • D=Hill Slope • x=compound concentration • EC50=the concentration of compound when y=(YMax−YMin)/2 • DC50=the concentration of the compound when y=50% of DMSO control (50% AR degradation) • y=AR protein level normalized to DMSO control
The lowest measured AR level normalized to DMSO control in response to compound treatment, termed Y value, was used to characterize the compound-mediated AR degradation efficiency.

Compound | Y (AR degradation efficiency, % of DMSO control) | DC50 [µM]
CC1(C)C(=O)N(c2cnc(C#N)c(C(F)(F)F)c2)C(=S)N1c1ccc(OCCN2CCN(CC(=O)Nc3cc(Cl)cc(NC4CCC(=O)NC4=O)c3)CC2)c(Cl)c1 (stereo not shown) [Example 14, hydrochloride] | * (0<Y<=25%) | < 0.1
Cc1cc(NC(=O)CN2CCN(CCOc3ccc(N4C(=S)N(c5ccc(C#N)c(C(F)(F)F)c5)C(=O)C4(C)C)cc3F)CC2)cc(NC2CCC(=O)NC2=O)c1 (stereo not shown) [Example 15, hydrochloride] | ** (25%<Y<=35%) | < 0.1
CC(C)c1cc(N2C(=S)N(c3ccc(C#N)c(C(F)(F)F)c3)C(=O)C2(C)C)ccc1OCCN1CCN(CC(=O)Nc2cccc(NC3CCC(=O)NC3=O)c2)CC1 (stereo not shown) [Example 17, hydrochloride] | * (0<Y<=25%) | < 0.1
CC(C)Cc1cc(N2C(=S)N(c3ccc(C#N)c(C(F)(F)F)c3)C(=O)C2(C)C)ccc1OCCN1CCN(CC(=O)Nc2cccc(NC3CCC(=O)NC3=O)c2)CC1 (stereo not shown) [Example 18] | * (0<Y<=25%) | < 0.1
CC1(C)C(=O)N(c2ccc(C#N)c(C(F)(F)F)c2)C(=S)N1c1ccc(OCCN2CCN(CC(=O)Nc3cc(F)cc(NC4CCC(=O)NC4=O)c3)CC2)c(F)c1 (stereo not shown) [Example 19, formate] | * (0<Y<=25%) | < 0.1
CC1(C)C(=O)N(c2ccc(C#N)c(C(F)(F)F)c2)C(=S)N1c1ccc(OCCN2CCN(CC(=O)Nc3cc(NC4CCC(=O)NC4=O)ccc3Cl)CC2)c(Cl)c1 (stereo not shown) [Example 20, hydrochloride] | * (0<Y<=25%) | < 0.1
C[C@@H](C(=O)Nc1cccc(NC2CCC(=O)NC2=O)c1)N1CCN(CCOc2ccc(N3C(=S)N(c4ccc(C#N)c(C(F)(F)F)c4)C(=O)C3(C)C)cc2Cl)CC1 (stereo partly shown) [Example 21, hydrochloride] | * (0<Y<=25%) | < 0.1
CCc1cc(N2C(=S)N(c3cnc(C#N)c(C(F)(F)F)c3)C(=O)C2(C)C)ccc1OCCN1CCN(CC(=O)Nc2cccc(NC3CCC(=O)NC3=O)c2)CC1 (stereo not shown) [Example 22, hydrochloride] | * (0<Y<=25%) | < 0.1
CC1(C)C(=O)N(c2cnc(C#N)c(C(F)(F)F)c2)C(=S)N1c1ccc(OCCN2CCN(CC(=O)Nc3cc(Cl)cc(NC4CCC(=O)NC4=O)c3)CC2)cc1 (stereo not shown) [Example 24, 2-(4-(2-(4-(3-(6-cyano-5-(trifluoromethyl)pyridin-3-yl)-5,5-dimethyl-4-oxo-2-thioxoimidazolidin-1-yl)-2-ethylphenoxy)ethyl)-2,2-dimethylpiperazin-1-yl)-N-(3-((2,6-dioxopiperidin-3-yl)amino)-5-fluorophenyl)acetamide hydrochoride] | * (0<Y<=25%) | < 0.1
C[C@H](C(=O)Nc1cccc(NC2CCC(=O)NC2=O)c1)N1CCN(CCOc2ccc(N3C(=S)N(c4ccc(C#N)c(C(F)(F)F)c4)C(=O)C3(C)C)cc2Cl)CC1 (stereo partly shown) [Example 25, hydrochloride] | *** (35%<Y<50%) | < 0.1
CCc1cc(N2C(=S)N(c3ccc(C#N)c(C(F)(F)F)c3)C(=O)C2(C)C)ccc1OCCN1CCN(CC(=O)Nc2cccc(N[C@H]3CCC(=O)NC3=O)c2)CC1 [Example 27, hydrochloride] | * (0<Y<=25%) | < 0.1
CCc1cc(N2C(=S)N(c3ccc(C#N)c(C(F)(F)F)c3)C(=O)C2(C)C)ccc1OCCN1CCN(CC(=O)Nc2cccc(N[C@@H]3CCC(=O)NC3=O)c2)CC1 [Example 28, hydrochloride] | * (0<Y<=25%) | < 0.1
CCC(C)c1cc(N2C(=S)N(c3ccc(C#N)c(C(F)(F)F)c3)C(=O)C2(C)C)ccc1OCCN1CCN(CC(=O)Nc2cccc(NC3CCC(=O)NC3=O)c2)CC1 (stereo not shown) [Example 29, hydrochloride] | ** (25%<Y<=35%) | 0.5 to 1
CC1(C)C(=O)N(c2ccc(C#N)c(C(F)(F)F)c2)C(=S)N1c1ccc(OCCN2CCN(CC(=O)Nc3cc(Cl)cc(NC4CCC(=O)NC4=O)c3)CC2)c(C2CC2)c1 (stereo not shown) [Example 30, hydrochloride] | * (0<Y<=25%) | < 0.1
CC1(C)C(=O)N(c2ccc(C#N)c(C(F)(F)F)c2)C(=S)N1c1ccc(OCCN2CCN(CC(=O)Nc3cccc(NC4CCC(=O)NC4=O)c3)CC2)c(C2CCC2)c1 (stereo not shown) [Example 31, trifluoroacetate] | * (0<Y<=25%) | < 0.1
CCCc1cc(N2C(=S)N(c3ccc(C#N)c(C(F)(F)F)c3)C(=O)C2(C)C)ccc1OCCN1CCN(CC(=O)Nc2cccc(NC3CCC(=O)NC3=O)c2)CC1 (stereo not shown) [Example 34, hydrochloride] | * (0<Y<=25%) | < 0.1
CCc1cc(N2C(=S)N(c3ccc(C#N)c(C(F)(F)F)c3)C(=O)C2(C)C)ccc1OCCN1CCN(CC(=O)Nc2cccc(NC3CCC(=O)NC3=O)c2Cl)CC1 (stereo not shown) [Example 35, hydrochloride] | ** (25%<Y<=35%) | 0.1 to 0.5
CC1(C)C(=O)N(c2cnc(C#N)c(C(F)(F)F)c2)C(=S)N1c1ccc(OCCN2CCN(CC(=O)Nc3cccc(NC4CCC(=O)NC4=O)c3)CC2)c(C2CCC2)c1 (stereo not shown) [Example 36, trifluoroacetate] | * (0<Y<=25%) | < 0.1
CCC(C)c1cc(N2C(=S)N(c3cnc(C#N)c(C(F)(F)F)c3)C(=O)C2(C)C)ccc1OCCN1CCN(CC(=O)Nc2cccc(NC3CCC(=O)NC3=O)c2)CC1 (stereo not shown) [Example 37, hydrochloride] | *** (35%<Y<50%) | 0.5 to 1
CCCc1cc(N2C(=S)N(c3cnc(C#N)c(C(F)(F)F)c3)C(=O)C2(C)C)ccc1OCCN1CCN(CC(=O)Nc2cccc(NC3CCC(=O)NC3=O)c2)CC1 (stereo not shown) [Example 38, hydrochloride] | * (0<Y<=25%) | < 0.1
CC1(C)C(=O)N(c2ccc(C#N)c(C(F)(F)F)c2)C(=S)N1c1ccc(OCCN2CCN(CC(=O)Nc3cccc(NC4CCC(=O)NC4=O)c3)CC2)c(C2CCCC2)c1 (stereo not shown) [Example 39, hydrochloride] | ** (25%<Y<=35%) | 0.1 to 0.5
CCc1cc(N2C(=S)N(c3ccc(C#N)c(C(F)(F)F)c3)C(=O)C2(C)C)ccc1OCCN1CCN(CC(=O)Nc2cc(Cl)cc(NC3CCC(=O)NC3=O)c2)CC1 (stereo not shown) [Example 40, hydrochloride] | * (0<Y<=25%) | < 0.1
CCc1cc(N2C(=S)N(c3ccc(C#N)c(C(F)(F)F)c3)C(=O)C2(C)C)ccc1OCCN1CCN(CC(=O)Nc2cc(NC3CCC(=O)NC3=O)ccc2Cl)CC1 (stereo not shown) [Example 41, hydrochloride] | * (0<Y<=25%) | < 0.1
CCc1cc(N2C(=S)N(c3ccc(C#N)c(C(F)(F)F)c3)C(=O)C2(C)C)ccc1OCCN1CCN(CC(=O)Nc2cccc(NC3CCC(=O)NC3=O)c2)C[C@@H]1C (stereo partly shown) [Example 43, hydrochloride] | * (0<Y<=25%) | < 0.1
CCc1cc(N2C(=S)N(c3ccc(C#N)c(C(F)(F)F)c3)C(=O)C2(C)C)ccc1OCCN1CCN(CC(=O)Nc2cccc(NC3CCC(=O)NC3=O)c2)C[C@H]1C (stereo partly shown) [Example 44] | * (0<Y<=25%) | < 0.1
CCc1cc(N2C(=S)N(c3ccc(C#N)c(C(F)(F)F)c3)C(=O)C2(C)C)ccc1OCCN1CCN(CC(=O)Nc2cccc(NC3CCC(=O)NC3=O)c2)[C@H](C)C1 (stereo partly shown) [Example 45] | * (0<Y<=25%) | < 0.1

Source: patent publication US12404241B2 (Celgene Corporation, priority 2018, dated 2025)
